From US4820694A, “Modifications of 3-O-demethylmycinose in macrocin and lactenocin” (priority 1986, dated 1989)
In brackets after ≈: the same amount, converted by molar mass. Read-outs that look alike come from different tables or passages of the source.

How the values were obtained:
Escherichia coli EC14 = experiment: standard agar-dilution MIC assay; format: cell-based; settings: agar-dilution, read-out: MIC
Method: (§1) The MIC's in Table III were determined by standard agar-dilution assays. The MIC's in Table IV were obtained using conventional brothdilution microtiter tests.

[1] = system: Klebsiella pneumoniae X68; experiment: standard agar-dilution MIC assay; format: cell-based; settings: Klebsiella pneumoniae, X68; agar-dilution; read-out: MIC
Method: as §1

[2] = system: Pseudomonas aeruginosa X239; experiment: standard agar-dilution MIC assay; format: cell-based; settings: Pseudomonas aeruginosa, X239; agar-dilution; read-out: MIC
Method: as §1

[3] = system: Staphylococcus aureus V41; experiment: standard agar-dilution MIC assay; format: cell-based; settings: Staphylococcus aureus, V41
Method: as §1

[4] = system: Staphylococcus aureus X1.1; experiment: standard agar-dilution MIC assay; format: cell-based; settings: Staphylococcus aureus, X1.1
Method: as §1

[5] = system: Staphylococcus aureus X400; experiment: standard agar-dilution MIC assay; format: cell-based; settings: Staphylococcus aureus, X400
Method: as §1

[6] = system: Staphylococcus epidermidis EP12; experiment: standard agar-dilution MIC assay; format: cell-based
Method: as §1

[7] = system: Staphylococcus epidermidis EPI1; experiment: standard agar-dilution MIC assay; format: cell-based; settings: Staphylococcus epidermidis, EPI1
Method: as §1

[8] = system: Streptococcus Group D 9960; experiment: standard agar-dilution MIC assay; format: cell-based; settings: GROUPD9960, read-out: MIC
Method: as §1

[9] = system: Streptococcus Group D X66; experiment: standard agar-dilution MIC assay; format: cell-based; settings: read-out: MIC
Method: as §1

[10] = system: Streptococcus pyogenes C203; experiment: standard agar-dilution MIC assay; format: cell-based; settings: Streptococcus pyogenes, C203
Method: as §1

[11] = system: Staphylococcus aureus S13E; experiment: microbe, parasite or virus in culture; format: cell-based; settings: Staphylococcus aureus, S13E
Method: as §1

[12] = system: Streptococcus pneumoniae Park I; experiment: microbe, parasite or virus in culture; format: cell-based; settings: Streptococcus pneumoniae
Method: as §1

[13] = system: Bordetella bronchiseptica; experiment: broth-dilution microtiter MIC test; format: cell-based; settings: Bordetella bronchiseptica; broth-dilution microtiter; read-out: MIC
Method: as §1

[14] = system: Mycoplasma gallisepticum 15E; experiment: broth-dilution microtiter MIC test; format: cell-based; settings: Mycoplasmoides gallisepticum, 15E
Method: as §1

[15] = system: Mycoplasma gallisepticum 29C; experiment: broth-dilution microtiter MIC test; format: cell-based; settings: Mycoplasmoides gallisepticum, 29C
Method: as §1

[16] = system: Mycoplasma gallisepticum 36H; experiment: broth-dilution microtiter MIC test; format: cell-based; settings: Mycoplasmoides gallisepticum, 36H
Method: as §1

Mycoplasma hyorhinis 29E = experiment: broth-dilution microtiter MIC test; format: cell-based; settings: Mycoplasma, 29E
Method: as §1

Mycoplasma synoviae 40A = experiment: broth-dilution microtiter MIC test; format: cell-based; settings: Mycoplasmopsis synoviae, 40A
Method: as §1

[17] = system: Pasteurella hemolytica 22C; experiment: broth-dilution microtiter MIC test; format: cell-based; settings: Pasteurella, 22C
Method: as §1

[18] = system: Pasteurella hemolytica 23C; experiment: broth-dilution microtiter MIC test; format: cell-based; settings: Pasteurella, 23C
Method: as §1

[19] = system: Pasteurella hemolytica 41D; experiment: broth-dilution microtiter MIC test; format: cell-based; settings: Pasteurella, 41D
Method: as §1

[20] = system: Pasteurella multocida 17E; experiment: broth-dilution microtiter MIC test; format: cell-based; settings: Pasteurella multocida, 17E
Method: as §1

[21] = system: Pasteurella multocida 22A; experiment: broth-dilution microtiter MIC test; format: cell-based; settings: Pasteurella multocida, 22A
Method: as §1

[22] = system: Pasteurella multocida 40G; experiment: broth-dilution microtiter MIC test; format: cell-based; settings: Pasteurella multocida, 40G
Method: as §1

[23] = system: Pasteurella multocida 60A; experiment: broth-dilution microtiter MIC test; format: cell-based; settings: Pasteurella multocida, 60A
Method: as §1

[24] = system: Pasteurella multocida 68C; experiment: broth-dilution microtiter MIC test; format: cell-based; settings: Pasteurella multocida, 68C
Method: as §1

[25] = system: Staphylococcus aureus 19C; experiment: broth-dilution microtiter MIC test; format: cell-based; settings: Staphylococcus aureus, 19C
Method: as §1

Streptococcus sp. 19F = experiment: broth-dilution microtiter MIC test; format: cell-based; settings: Streptococcus, SP.19F
Method: as §1

[26] = system: Streptococcus pyogenes C203; experiment: protection of mice experimentally infected with S. pyogenes C203; format: in vivo; settings: C203, sc, Subcutaneous, mice, mg/kg × 2, doses given 1 and 4 hours postinfection, read-out: ED50
In short: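 Activity is given as ED50, the mg/kg dose (×2) protecting half of the mice infected with S. pyogenes C203. Compound was dosed 1 and 4 h after infection.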

Pasteurella multocida = Pasteurella multocida infection in one-day-old chicks; format: in vivo; settings: subcutaneously, 30 mg/kg × 2, 1 and 4 hours post-challenge
Method: Some of the formula 1 compounds have also shown in vivo antibacterial activity against infections induced by Gram-negative bacteria. Table VI summarizes the results of tests in which illustrative compounds were evaluated against a Pasteurella infection in one-day-old chicks. The compounds were administered by subcutaneous injection at a dosage of 30 mg/kg, 1 and 4 hours post-challenge of the chicks with Pasteurella multocida (0.1 ml of a 10^-4 dilution of a twenty-hour tryptose broth culture of an avian P. multocida given subcutaneously). In these tests, unless indicated otherwise, all non-medicated infected chicks died within 24 hours of Pasteurella challenge.
^a Administered subcutaneously; 30 mg/kg × 2

[27] = broth-dilution microtiter, read-out: MIC

Structure (SMILES): CCC1OC(=O)CC(O)C(C)C(OC2OC(C)C(O)C(N(C)C)C2OC(C)=O)C(CC=O)CC(C)C(=O)C=CC(C)=CC1COC1OC(C)C(OC(C)=O)C(O)C1OC (centres unmarked) [Compound 21, 2',4"-Di-O-acetyl-lactenocin]
- MIC (Escherichia coli EC14): > 128 µg/mL
- MIC [1]: > 128 µg/mL
- MIC [2]: > 128 µg/mL
- MIC [3]: 4 µg/mL (≈ 4.75 µM)
- MIC [4]: 2 µg/mL (≈ 2.38 µM)
- MIC [5]: 8 µg/mL (≈ 9.5 µM)
- MIC [6]: 4 µg/mL (≈ 4.75 µM)
- MIC [7]: 2 µg/mL (≈ 2.38 µM)
- MIC [8]: 4 µg/mL (≈ 4.75 µM)
- MIC [9]: 4 µg/mL (≈ 4.75 µM)
- MIC [10]: 1 µg/mL (≈ 1.19 µM)
- MIC [11]: 4 µg/mL (≈ 4.75 µM)
- MIC [12]: 1 µg/mL (≈ 1.19 µM)
- MIC [13]: > 50 µg/mL
- MIC [14]: 50 µg/mL (≈ 59.4 µM)
- MIC [15]: 3.12 µg/mL (≈ 3.71 µM)
- MIC [16]: 50 µg/mL (≈ 59.4 µM)
- MIC (Mycoplasma hyorhinis 29E): 6.25 µg/mL (≈ 7.42 µM)
- MIC (Mycoplasma synoviae 40A): 3.12 µg/mL (≈ 3.71 µM)
- MIC [17]: 50 µg/mL (≈ 59.4 µM)
- MIC [18]: 50 µg/mL (≈ 59.4 µM)
- MIC [19]: 50 µg/mL (≈ 59.4 µM)
- MIC [20]: 12.5 µg/mL (≈ 14.8 µM)
- MIC [21]: 12.5 µg/mL (≈ 14.8 µM)
- MIC [22]: 12.5 µg/mL (≈ 14.8 µM)
- MIC [23]: 12.5 µg/mL (≈ 14.8 µM)
- MIC [24]: 12.5 µg/mL (≈ 14.8 µM)
- MIC [25]: 3.12 µg/mL (≈ 3.71 µM)
- MIC (Streptococcus sp. 19F): 1.56 µg/mL (≈ 1.85 µM)
- ED50 [26]: 5.5 mg/kg
- Number of Deaths/Number Treated (Pasteurella multocida): 3/10

Structure (SMILES): CCC1OC(=O)CC(O)C(C)C(OC2OC(C)C(O)C(N(C)C)C2OC(C)=O)C(CC=O)CC(C)C(=O)C=CC(C)=CC1COC1OC(C)C(OC(C)=O)C(OC(C)=O)C1OC (centres unmarked) [Compound 23, 2',3",4"-Tri-O-acetyl-lactenocin]
- MIC (Escherichia coli EC14): > 128 µg/mL
- MIC [1]: > 128 µg/mL
- MIC [2]: > 128 µg/mL
- MIC [3]: 2 µg/mL (≈ 2.26 µM)
- MIC [4]: 2 µg/mL (≈ 2.26 µM)
- MIC [5]: 4 µg/mL (≈ 4.52 µM)
- MIC [6]: 2 µg/mL (≈ 2.26 µM)
- MIC [7]: 2 µg/mL (≈ 2.26 µM)
- MIC [8]: 4 µg/mL (≈ 4.52 µM)
- MIC [9]: 8 µg/mL (≈ 9.05 µM)
- MIC [10]: 2 µg/mL (≈ 2.26 µM)
- MIC [11]: 2 µg/mL (≈ 2.26 µM)
- MIC [12]: 2 µg/mL (≈ 2.26 µM)
- MIC [13]: > 50 µg/mL
- MIC [14]: 50 µg/mL (≈ 56.6 µM)
- MIC [15]: 1.56 µg/mL (≈ 1.76 µM)
- MIC [16]: 50 µg/mL (≈ 56.6 µM)
- MIC (Mycoplasma hyorhinis 29E): 12.5 µg/mL (≈ 14.1 µM)
- MIC (Mycoplasma synoviae 40A): 6.25 µg/mL (≈ 7.07 µM)
- MIC [17, 27]: > 50 µg/mL
- MIC [18, 27]: > 50 µg/mL
- MIC [19, 27]: > 50 µg/mL
- MIC [20]: 25 µg/mL (≈ 28.3 µM)
- MIC [21]: 50 µg/mL (≈ 56.6 µM)
- MIC [22]: 50 µg/mL (≈ 56.6 µM)
- MIC [23]: 50 µg/mL (≈ 56.6 µM)
- MIC [24]: 25 µg/mL (≈ 28.3 µM)
- MIC [25]: 6.25 µg/mL (≈ 7.07 µM)
- MIC (Streptococcus sp. 19F): 1.56 µg/mL (≈ 1.76 µM)
- ED50 [26]: 6.8 mg/kg
- Number of Deaths/Number Treated (Pasteurella multocida): 10/10
